Experimental data taken from PMC3877906, “Polypeptide Modulators of TRPV1 Produce Analgesia without Hyperthermia” (Marine Drugs, 2013).

Experiments:
[1] = test system: CD-1 mice; test: core body temperature (rectal measuring); type: in vivo, mouse; conditions: for core body temperature, in words: rectal measuring, mice, vs saline
Procedure: Admittedly, hyperthermia is considered a critical side effect of TRPV1 antagonists, so we assessed the effect of the polypeptides on body temperature. Polypeptides were administered intravenously at doses 0.1 mg/kg and 0.5 mg/kg, and rectal temperature was monitored (Figure 5a,b).
(§1) All experiments were performed in accordance with the recommendations in the “Principles of Laboratory Animal Care” and after approval by the Animal Care and Use Committee of the Branch of the IBCh RAS (Pushchino, Russia). Adult male CD-1 mice (Animal Breeding Facility Branch of Shemyakin-Ovchinnikov Institute of Bioorganic Chemistry, Russian Academy of Sciences, Pushchino, Russia) weighing 20–25 g were used. Animals were allowed to acclimate in the laboratory for at least five days. Mice were housed at room temperature (23 ± 2 °C) on a 12 h light–dark cycle with food and water available ad libitum. Polypeptides or vehicle was administered intravenously 15 min before testing.
(§2) The significance of the data was determined by analysis of variance (ANOVA) followed by Tukey’s test. Data are presented as mean ± S.E.
The MLT1404 Rectal Temperature Probe and Chart Power Lab (ADInstruments Inc., Colorado Springs, CO, USA) was used to record body temperature. During recording, the animals were placed in a MLA5018 Rodent Restrainer (ADInstruments Inc., Colorado Springs, CO, USA). The adaptation period was 20 min. Core body temperature was recorded every minute for 20 min before and 100 min after test compound administration. AMG9810 was dissolved in DMSO and was injected intraperitoneally.

[2] = stated as background; cited from earlier work
Text: TRPV1 participates in thermoregulation, and almost all its known agonists and antagonists change core body temperature. […] The influence of antagonists on core body temperature is more complex. Antagonists that interact with the intracellular capsaicin-binding pocket of TRPV1 elicit a hyperthermic effect if they are able to inhibit pH-induced TRPV1 currents.

[3] = test system: TRPV1; type: cell-based, rat
Procedure: Figure 2 Effects of APHC3 on recombinant TRPV1 expressed in HEK-293 cells. (a) Resting current recorded from a TRPV1-positive cell held at −30 mV. […] Straight lines above the recording indicate application of APHC3 (Long line) and capsaicin (Short lines). The cells were stimulated and rinsed by rapid switching of the bath solution between the control solution and solutions containing the indicated compound. (b) Capsaicin responses in control and in the presence of the 300 nM APHC3 peptide. In each case, the control response was calculated as an average of two acid responses recorded just prior to peptide application. Averaged responses recorded in the presence of APHC3 were normalized to averaged control responses. Those are presented as the mean ± s.d. (n = 4). […] (c, d) Cell responses to the acidification of the bath solution from pH 7.4 to pH 5.5 in control and in the presence of the APHC3 applied at different concentrations as indicated. The experimental traces in (c) and in (d, upper trace) illustrate representative responses of EGFP/TRPV1-positive cells. The bottom trace in (d) represents responses of an EGFP/TRPV1-negative cell assayed simultaneously. (e) Acid responses recorded in the presence of APHC3 (90, 160 and 240 nM) normalized to a control response. The data are presented as the mean ± s.d. (n = 5–10). […] In each case, the control response was calculated as an average of the two acid responses recorded just prior to peptide application. The average of the two acid responses recorded after peptide application was calculated and normalized to the control response. Experimental traces in (c, d) were obtained from three different cells. The changes in bath solution pH (continuous lines) and APHC3 applications (thick straight lines) are shown above the fluorescence traces. Cells were stimulated and rinsed by a rapid replacement of the control bath solution with modified bath solution at pH 5.5 with or without APHC3.
(§3) HEK-293 cells were cultured in Dulbecco’s modified Eagle’s medium (DMEM) (Life Technologies, Grand Island, NY, USA) containing 10% (vol/vol) fetal bovine serum (Thermo Fisher Scientific, Palm Beach, FL, USA), glutamine (1%) and the antibiotic gentamicin (100 μg/mL) (Life Technologies, Grand Island, NY, USA). The pIRES2-EGFP plasmid harboring rat TRPV1 cDNA was transiently transfected into HEK-293 cells by replacing the growth medium in each well with a transfection mixture, containing 1.6 μg of DNA and 4 μL of Lipofectamine (Life Technologies, Grand Island, NY, USA) in 1 mL of serum-free DMEM. After incubating for 6 h, the transfection mixture was replaced with normal culture medium. Cells were assayed within 48–96 h after transfection.
Ion currents were recorded using an Axopatch 200A amplifier, with a DigiData 1322A interface, and pClamp8 software (Molecular Devices, Downingtown, PA, USA). External solutions were delivered by a gravity-driven perfusion system at a rate of 0.1 mL/s. Generally, the whole-cell patch clamp approach was used with recording pipettes containing (mM): 140 CsCl, 1 MgATP, 10 BAPTA, 10 HEPES-CsOH (pH 7.2). The basic bath solution included the following (mM): 140 NaCl, 5 KCl, 1 MgCl2, 1 CaCl2, 10 HEPES-NaOH (pH 7.4).

[4] = test system: TRPV1; test: Ca^2+ imaging, capsaicin responses of TRPV1-positive HEK-293 cells; type: cell-based, rat; conditions: 100 nM
Procedure: as §3
All recordings were performed at room temperature.

[5] = test system: CD-1 mice; test: hot plate test; type: in vivo, mouse; conditions: 0.1 and 1 mg/kg; 55 °C
Procedure: The hot plate test is a most simple for TRPV1 inhibitor characterization since TRPV1 play significant role in temperature sensation. Effect of APHC1 and APHC3 on thermal nociception at dose 0.1 mg/kg after intramuscular, intraperitoneal and intravenous administration was measured before. […] Here we assessed changes in thermal nociception to a noxious thermal stimuli elicited by different doses of APHC1 and APHC3 to determine minimal effective dose. […] Both polypeptides reached maximal effect at 0.1 mg/kg.
as §1, §2
Sensitivity to a thermal stimulus was determined by hind paw withdrawal or licking latency using a Hot-Plate Analgesia Meter (Columbus Instruments, Columbus, OH, USA) at 55 °C.

[6] = target: Transient receptor potential vanilloid 1 receptor (TRPV1) (rat) (UniProt O35433)
[7] = test system: mice; conditions: ref [22],[23]; cited from earlier work
Text: (§4) Several polypeptide modulators of TRPV1 that interact with the extracellular part of the receptor have been reported. […] The structural homology of APHCs to these proteins is minimal so both polypeptides presented structural distinct class of TRPV1 inhibitors.

[8] = test system: TRPV1; conditions: ref [22],[23]; cited from earlier work
Text: as §4

Sequence of UniProt O35433 (O35433 whole entry): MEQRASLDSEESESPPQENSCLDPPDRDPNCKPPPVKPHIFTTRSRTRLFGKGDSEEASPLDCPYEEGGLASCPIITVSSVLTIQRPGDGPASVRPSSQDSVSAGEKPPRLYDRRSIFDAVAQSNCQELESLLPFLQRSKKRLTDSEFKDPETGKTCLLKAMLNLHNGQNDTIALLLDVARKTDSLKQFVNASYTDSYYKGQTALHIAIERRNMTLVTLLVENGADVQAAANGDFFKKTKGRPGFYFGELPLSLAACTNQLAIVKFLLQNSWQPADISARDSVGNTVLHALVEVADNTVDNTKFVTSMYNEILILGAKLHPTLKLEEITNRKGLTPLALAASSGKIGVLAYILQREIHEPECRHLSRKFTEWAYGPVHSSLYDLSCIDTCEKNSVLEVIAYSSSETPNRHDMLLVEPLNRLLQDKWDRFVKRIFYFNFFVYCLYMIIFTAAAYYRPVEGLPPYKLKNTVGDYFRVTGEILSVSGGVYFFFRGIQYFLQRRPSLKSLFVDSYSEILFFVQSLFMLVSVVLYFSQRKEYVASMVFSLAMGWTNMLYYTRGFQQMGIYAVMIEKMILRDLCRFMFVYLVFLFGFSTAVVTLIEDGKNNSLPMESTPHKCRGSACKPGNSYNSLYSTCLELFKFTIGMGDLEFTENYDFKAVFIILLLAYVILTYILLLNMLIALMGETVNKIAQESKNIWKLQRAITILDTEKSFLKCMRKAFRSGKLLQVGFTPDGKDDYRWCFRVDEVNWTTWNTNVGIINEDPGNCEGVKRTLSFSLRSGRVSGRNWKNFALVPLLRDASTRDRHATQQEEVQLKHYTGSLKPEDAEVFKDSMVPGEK

Molecule: CC(C)(C)c1ccc(/C=C/C(=O)Nc2ccc3c(c2)OCCO3)cc1 [AMG9810, reference compound]
- increase in body temperature ([1]; 30 mg/kg i.p., vehicle 10% DMSO, significant, n = 7): 1.6 °C
- core body temperature, in words [1]: produced hyperthermic effect

Molecule: COc1cc(CNC(=O)CCCC/C=C/C(C)C)ccc1O [capsaicin]
- body temperature [2]: significant decrease in body temperature
- capsaicin-elicited currents [3]: elicited strong inward currents in all examined TRPV1-positive cells
- capsaicin-elicited Ca^2+ responses [4]: elicited marked Ca^2+ responses

Molecule: aprotinin [reference compound]
- behavioral response to thermal stimuli [5]: did not change behavioral response to thermal stimuli
- increase in core body temperature ([1]; 0.1 mg/kg, not statistically significant vs saline, n = 7): 0.4–0.5 °C
- core body temperature, in words [1]: did not change or modestly increase core body temperature

B1: APHC3 (peptide)
chain: GSICLEPKVVGPCTAYFPRFYFNSETGKCTPFIYGGCEGNGNNFETLRACRGICRA
- inhibition of capsaicin (100 nM)-induced inward currents by 300 nM APHC3, whole-cell patch clamp on TRPV1-positive HEK-293 cells (n = 4) [6]: 25%

B2: DkTx: spider's polypeptide that activates TRPV1 (protein, UniProt P0CH43 1-79, looked up)
Tau-theraphotoxin-Hs1a: DCAKEGEVCSWGKKCCDLDNFYCPMEFIPHCKKYKPYVPVTTNCAKEGEVCGWGSKCCHGLDCPLAFIPYCEKYRGRND
- pain response when injected in mice [7]: mediate the pain response
- effect on TRPV1 in vitro [8]: activate TRPV1 in vitro
